Here are results for 18 compounds from patent US12215093B2, “Bicyclic carboxamides and methods of use thereof” (Tempest Therapeutics, Inc., priority 2018, dated 2025).

Usually IC50 stands for the concentration that inhibits the measured activity by half.

For experiment [1], the target named is T1, EP2 (Homo sapiens, UniProt P43116). Briefly: cell-based.
The next experiment concerns the target T2, EP4 (Homo sapiens, UniProt P35408).
T2 construct: host or cells: stably transfected HEK293 cells co-expressing a promiscuous G protein and a clytin variant
The experiment can be described thus: Functional calcium flux assay, EP4. The class given is cell-based. The settings on record: stably transfected HEK293 cells; PGE2 10 nM; read-out: EP4 Ca2+-flux assay IC50. In general terms: Calcium assays in cells follow changes in intracellular calcium, usually with a dye or a luminescent sensor.

Experiment [2] has as its target T1, EP2.

Like-named read-outs stand apart in the source and are kept apart here.

T1 sequence (P43116 whole entry): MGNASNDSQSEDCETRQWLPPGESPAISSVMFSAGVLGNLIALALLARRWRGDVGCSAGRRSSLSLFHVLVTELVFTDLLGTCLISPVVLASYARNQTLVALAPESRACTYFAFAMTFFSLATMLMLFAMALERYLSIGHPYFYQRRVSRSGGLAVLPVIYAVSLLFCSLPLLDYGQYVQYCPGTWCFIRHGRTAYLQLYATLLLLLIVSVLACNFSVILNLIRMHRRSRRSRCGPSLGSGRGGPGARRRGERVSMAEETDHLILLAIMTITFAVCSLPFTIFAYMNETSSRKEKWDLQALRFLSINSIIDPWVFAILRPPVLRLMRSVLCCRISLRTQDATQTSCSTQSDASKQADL
T2 sequence (P35408 whole entry): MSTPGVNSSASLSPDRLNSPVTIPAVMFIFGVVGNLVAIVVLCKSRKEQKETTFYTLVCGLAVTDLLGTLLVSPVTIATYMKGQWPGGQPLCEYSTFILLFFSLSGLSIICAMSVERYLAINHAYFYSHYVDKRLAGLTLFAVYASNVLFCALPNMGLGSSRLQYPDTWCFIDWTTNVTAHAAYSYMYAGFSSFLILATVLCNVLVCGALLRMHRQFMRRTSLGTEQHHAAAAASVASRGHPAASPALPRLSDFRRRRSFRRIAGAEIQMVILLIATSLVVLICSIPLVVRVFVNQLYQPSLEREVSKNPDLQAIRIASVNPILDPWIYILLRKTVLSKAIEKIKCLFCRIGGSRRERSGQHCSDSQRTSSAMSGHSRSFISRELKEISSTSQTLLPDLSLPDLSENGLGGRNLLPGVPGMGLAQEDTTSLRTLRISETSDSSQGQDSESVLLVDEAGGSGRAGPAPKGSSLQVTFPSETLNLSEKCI

As for `CCOc1cccc(-c2ccc(C(C)n3ncc4cccc(C(=O)NC5CC6(C5)CC(C(=O)O)C6)c43)cc2)n1` (racemic) [Example 133, (Sa)-6-(1-((racemic)-1-(4-(6-Ethoxypyridin-2-yl)phenyl)-ethyl)-1H-indazole-7-carboxamido)spiro[3.3]heptane-2-carboxylic acid], the IC50 was 65 nM against EP2 [1] and under 1 nM on EP4.

With `O=C(NC1CC2(C1)CC(C(=O)O)C2)c1ccc(F)c2ccn(Cc3ccc(-c4ccccc4)c(F)c3)c12` (stereo not drawn) [Example 65, (Sa)-6-(4-Fluoro-1-((2-fluoro-[1,1′-biphenyl]-4-yl)methyl)-1H-indole-7-carboxamido)spiro[3.3]heptane-2-carboxylic acid], the IC50 stood at 43 nM against EP2 [1] and 3 nM at EP4.

Take `O=C(NC1CC2(C1)CC(C(=O)O)C2)c1ccc(F)c2ccn(Cc3ccc(N4CCOCC4)cc3)c12` (racemic) [Example 31, (racemic)-6-(4-Fluoro-1-(4-morpholinobenzyl)-1H-indole-7-carboxamido)spiro[3.3]heptane-2-carboxylic acid]: the half-maximal inhibitory concentration (IC50) against EP2 [1] is 44 nM; at EP4 it was under 1 nM.

`COc1cc(-c2ccc(Cn3ncc4cc(Cl)cc(C(=O)NC5CC6(C5)CC(C(=O)O)C6)c43)cc2)ccn1` (stereo not drawn) [Example 135, (Sa)-6-(5-Chloro-1-(4-(2-methoxypyridin-4-yl)benzyl)-1H-indazole-7-carboxamido)spiro[3.3]heptane-2-carboxylic acid]: the results for the IC50 against EP2 [1] and at EP4 were under 25 nM and under 1 nM, respectively.

Regarding `COc1ccc(-c2ccc(Cn3ccc4c(F)ccc(C(=O)NC5CC6(C5)CC(C(=O)O)C6)c43)cc2)cc1F` (racemic) [Example 16, (racemic)-6-(4-fluoro-1-((3′-fluoro-4′-methoxy-[1,1′-biphenyl]-4-yl)methyl)-1H-indole-7-carboxamido)spiro[3.3]heptane-2-carboxylic acid], the IC50 against EP2 [1] was under 25 nM; on EP4 it was under 1 nM.

As for `O=C(O)CC1CC2(C1)CC(NC(=O)c1ccc(Cl)c3cnn(Cc4ccc(-c5ccccc5F)cc4)c13)C2` (stereo not drawn) [Example 143, (Ra)-2-(6-(4-Chloro-1-((2′-fluoro-[1,1′-biphenyl]-4-yl)methyl)-1H-indazole-7-carboxamido)spiro[3.3]heptan-2-yl)acetic acid], the IC50 at EP2 [2] was 35 nM; on EP4, under 1 nM.

`N#Cc1cccc(-c2ccc(Cn3ncc4c(Cl)ccc(C(=O)NC5CC6(C5)CC(C(=O)O)C6)c43)cc2)c1` (stereo not drawn) [Example 80, (Sa)-6-(4-chloro-1-((3′-cyano-[1,1′-biphenyl]-4-yl)methyl)-1H-indazole-7-carboxamido)spiro[3.3]heptane-2-carboxylic acid]: the IC50 was 55 nM at EP2 [2] and 1.1 nM on EP4.

Consider `CCOc1cc(-c2ccc(Cn3ccc4c(F)ccc(C(=O)NC5CC6(C5)CC(C(=O)O)C6)c43)cc2)ccn1` (stereo not drawn) [Example 48, (Sa)-6-(1-(4-(2-ethoxypyridin-4-yl)benzyl)-4-fluoro-1H-indole-7-carboxamido)spiro[3.3]heptane-2-carboxylic acid], for which the IC50 is 27 nM against EP2 [2] and under 1 nM on EP4.

`COc1cccc(-c2ccc(C(C)n3ccc4c(F)ccc(C(=O)NC5CC6(C5)CC(C(=O)O)C6)c43)cc2)c1` (single isomer, unassigned) [Example 128, (Sa)-6-(4-fluoro-1-((R) or (S)-1-(3′-methoxy-[1,1′-biphenyl]-4-yl)-ethyl)-1H-indole-7-carboxamido)spiro[3.3]heptane-2-carboxylic acid]: the results for the IC50 against EP2 [2] and at EP4 were under 25 nM and 1.9 nM, respectively.

In the case of `COc1ccc(-c2ccc(Cn3ccc4c(F)ccc(C(=O)NC5CC6(C5)CC(C(=O)O)C6)c43)cc2)cc1F` (stereo not drawn) [Example 47, (Sa)-6-(4-fluoro-1-((3’-fluoro-4’-methoxy-[1,1′-biphenyl]-4-yl)methyl)-1H-indole-7-carboxamido)spiro[3.3]heptane-2-carboxylic acid], the IC50 was 79 nM on EP2 [2] and under 1 nM at EP4.

For `COc1c(Cl)cc(C(=O)NC2CC3(CC(CC(=O)O)C3)C2)c2c1cnn2Cc1ccc(-c2ccccc2)cc1` (stereo not drawn) [Example 171, (Ra)-2-(6-(1-([1,1′-Biphenyl]-4-ylmethyl)-5-chloro-4-methoxy-1H-indazole-7-carboxamido)spiro[3.3]heptan-2-yl)acetic acid], the figures for the IC50 against EP2 [2] and at EP4 were under 25 nM and 1.4 nM, respectively.

For `COc1ncc(-c2ccc(C(C)n3ccc4c(F)ccc(C(=O)NC5CC6(C5)CC(C(=O)O)C6)c43)cc2)cc1Cl` (racemic) [Example 120, (Sa)-6-(1-((racemic)-1-(4-(5-chloro-6-methoxypyridin-3-yl)phenyl)-ethyl)-4-fluoro-1H-indole-7-carboxamido)spiro[3.3]heptane-2-carboxylic acid], the figures for the IC50 against EP2 [2] and at EP4 were under 25 nM and 11 nM, respectively.

With `O=C(NC1CC2(C1)CC(C(=O)O)C2)c1ccc(F)c2ccn(Cc3ccc4cc(F)ccc4c3)c12` (stereo not drawn) [Example 37, (Sa)-6-(4-fluoro-1-((6-fluoronaphthalen-2-yl)methyl)-1H-indole-7-carboxamido)spiro[3.3]heptane-2-carboxylic acid], the IC50 was 70 nM against EP2 [2] and under 1 nM on EP4.

On to `COc1cccc(-c2ccc(C(C)n3ncc4cccc(C(=O)NC5CC6(C5)CC(C(=O)O)C6)c43)cc2)c1` (racemic) [Example 113, (Sa)-6-(1-((racemic)-1-(3′-methoxy-[1,1′-bipheny]-4-yl)-ethyl)-1H-indazole-7-carboxamido)spiro[3.3]heptane-2-carboxylic acid], for which the IC50 was under 25 nM against EP2 [2] and 1.3 nM on EP4.

Take `CN(C)c1cc(-c2ccc(Cn3ccc4c(F)ccc(C(=O)NC5CC6(C5)CC(C(=O)O)C6)c43)cc2)ccn1` (stereo not drawn) [Example 22, 6-(1-(4-(2-(dimethylamino)pyridin-4-yl)benzyl)-4-fluoro-1H-indole-7-carboxamido)spiro[3.3]heptane-2-carboxylic acid]: the concentration for half-maximal inhibition (IC50) against EP2 [2] was 78 nM; at EP4, under 1 nM.

On to `CCOc1cc(-c2ccc(C(C)n3ncc4c(Cl)ccc(C(=O)NC5CC6(C5)CC(C(=O)O)C6)c43)cc2)ccn1` (racemic) [Example 124, (Sa)-6-(4-chloro-1-((racemic)-1-(4-(2-ethoxypyridin-4-yl)phenyl)-ethyl)-1H-indazole-7-carboxamido)spiro[3.3]heptane-2-carboxylic acid], for which the IC50 against EP2 [2] was under 25 nM; on EP4 it was 3.9 nM.

Take `CCOc1cc(-c2ccc(C(C)n3ncc4cccc(C(=O)NC5CC6(C5)CC(C(=O)O)C6)c43)cc2)ccn1` (racemic) [Example 115, (Sa)-6-(1-((racemic)-1-(4-(2-ethoxypyridin-4-yl)phenyl)-ethyl)-1H-indazole-7-carboxamido)spiro[3.3]heptane-2-carboxylic acid]: the figures for the IC50 on EP2 [2] and on EP4 were 69 nM and 2.9 nM, respectively.

Turning to `CCOc1cc(-c2ccc(Cn3ncc4c(Cl)ccc(C(=O)NC5CC6(C5)CC(C(=O)O)C6)c43)cc2)ccn1` (stereo not drawn) [Example 79, (Sa)-6-(4-chloro-1-(4-(2-ethoxypyridin-4-yl)benzyl)-1H-indazole-7-carboxamido)spiro[3.3]heptane-2-carboxylic acid], the IC50 on EP2 [2] was under 25 nM; at EP4, under 1 nM.
